According to patent US11999739B2, “Antimicrobials methods of making and using the same” (BIOVERSYS AG, priority 2016, dated 2024):

Assays:
[1] = test system: Staphylococcus aureus (S. aureus) 11540 strain; assay: Standard microdilution MIC assay, S. aureus; type: cell-based
Procedure, shortened: (§1)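 Broth microdilution per CLSI M7-A8 guidelines, with reference-strain quality control run in the same design; MIC determined per strain. Activity scored +/− against a 16 micrograms/mL cutoff.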

[2] = test system: Escherichia coli strain ATCC25922; assay: Standard microdilution MIC assay, E. coli; type: cell-based
Procedure, shortened: as §1

[3] = Rat five day safety study (bodyweight gain, reticulocyte count change); type: in vivo; conditions: male Sprague-Dawley juvenile rats, n=5, once daily slow intravenous infusion for 5 days at or near maximum-tolerated dose; for BW Result: bodyweight gain; for Hematology Result: reticulocyte count change
Method: The compounds of the present disclosure were tested for safety in a multi-day dosing study in rat. Key parameters that were monitored are bodyweight gain and hematological changes, particularly changes in reticulocyte counts. Male Sprague-Dawley (CD) juvenile rats were received from Charles River with double jugular vein catheters. For each compound, n=5. […] Bodyweights were recorded daily for the first 5 days (during the dosing period), then 2 to 3 times per week thereafter. Blood was collected via a jugular vein catheter into EDTA anti-coagulated tubes for complete blood counts (CBC) on Days 0 (baseline), 3 and 7. On Day 22, blood was drawn via a cardiac puncture into EDTA coated tubes for final CBC, and serum separator tubes for the complete clinical chemistry profile. The blood that was collected into serum separator tubes was allowed to clot at room temperature for approximately 30 minutes, spun in a centrifuge at 2000 rpm, and the resulting serum was aliquoted. All samples were sent on wet ice to Charles River Labs for analysis.

E. coli DH10B = assay: CLSI broth microdilution MIC, E. coli DH10B recipient; type: cell-based
Method: (§2) MICs of the four tested compounds and comparators (amikacin, cefepime, colistin, meropenem and tigecyline) were determined by CLSI broth microdilution using pre-prepared plates (Trek Diagnostic Systems) (CLSI Approved Standard M7-A10). Carbapenemase and mcr-1 genes were detected by PCR or sequencing. Efflux levels in P. aeruginosa isolates were inferred by interpretive reading of antibiogram data.

[4] = test system: E. coli DH10B mcr-1 transformant; assay: CLSI broth microdilution MIC, E. coli DH10B mcr-1 transformant; type: cell-based; conditions: MCR-1 Transformant
Method: as §2

Molecule	MIC [1] [µg/mL]	MIC [2] [µg/mL]	BW Result [3]	Hematology Result [3]	MIC (E. coli DH10B) [µg/mL]	MIC [4] [µg/mL]
CC(=N)NCC[C@@H]1CCC[C@@H](c2ccc(-n3cc4cc(-c5cc(CCC[C@H](C)N)cc(Cl)c5F)[nH]c4nc3=O)cc2F)N1 [Compound 152]	≤ 16	≤ 16	+ (a “+” in “BW result” indicates that the rat exhibited a weight gain of 20% or more)	+ (a “+” in “Hematology result” indicates indicates that the rat exhibited a reticulocyte count change of 65% or less)	–	–
CC(=N)NCC[C@@H](NCc1ccc(-n2cc3cc(-c4cc(CCC[C@H](C)N)cc(Cl)c4F)[nH]c3nc2=O)cc1)C1CC1 [Compound 119]	≤ 16	≤ 16	− (a “−” indicates that the rat exhibited a weight gain of less than 20%)	− (a “−” indicates indicates that the rat exhibited a reticulocyte count change of greater than 65%)	–	–
CC(=N)NCC[C@@H]1CCC[C@@H](c2ccc(-n3cc4cc(-c5cc(CCC[C@H](C)N)cc(Cl)c5F)[nH]c4nc3=O)cc2)N1CCCF [Compound 264]	≤ 16	≤ 16	+ (a “+” in “BW result” indicates that the rat exhibited a weight gain of 20% or more)	+ (a “+” in “Hematology result” indicates indicates that the rat exhibited a reticulocyte count change of 65% or less)	–	–
CC(=N)NCC[C@@H]1CCC[C@@H](c2ccc(-n3cc4cc(-c5cc(CCC[C@H](C)N)cc(Cl)c5F)[nH]c4nc3=O)cc2)N1CCCO [Compound 290]	≤ 16	≤ 16	+ (a “+” in “BW result” indicates that the rat exhibited a weight gain of 20% or more)	+ (a “+” in “Hematology result” indicates indicates that the rat exhibited a reticulocyte count change of 65% or less)	–	–
COC[C@H](N)CCCc1cc(-c2cc3cn(-c4ccc([C@@H]5CCC[C@@H](CCNC(C)=N)N5)cc4)c(=O)nc3[nH]2)c(F)c(C(F)(F)F)c1 [Compound 190]	≤ 16	≤ 16	− (a “−” indicates that the rat exhibited a weight gain of less than 20%)	− (a “−” indicates indicates that the rat exhibited a reticulocyte count change of greater than 65%)	–	–
CC(=N)NCC[C@@H]1CNC[C@@H](c2ccc(-n3cc4cc(-c5cc(CCC[C@H](C)N)cc(Cl)c5F)[nH]c4nc3=O)cc2)N1 [Compound 50]	≤ 16	≤ 16	+ (a “+” in “BW result” indicates that the rat exhibited a weight gain of 20% or more)	+ (a “+” in “Hematology result” indicates indicates that the rat exhibited a reticulocyte count change of 65% or less)	–	–
COC[C@H](N)CCCc1cc(-c2cc3cn(-c4ccc([C@@H]5CCC[C@@H](CCNC(C)=N)N5)cc4)c(=O)nc3[nH]2)cc(C(F)(F)F)c1 [Compound 200]	≤ 16	≤ 16	+ (a “+” in “BW result” indicates that the rat exhibited a weight gain of 20% or more)	− (a “−” indicates indicates that the rat exhibited a reticulocyte count change of greater than 65%)	–	–
C=C[C@H](N)CCCc1cc(Cl)c(F)c(-c2cc3cn(-c4ccc([C@@H]5CCC[C@@H](CCNC(C)=N)N5)c(SC)c4)c(=O)nc3[nH]2)c1 [Compound 182]	≤ 16	≤ 16	− (a “−” indicates that the rat exhibited a weight gain of less than 20%)	− (a “−” indicates indicates that the rat exhibited a reticulocyte count change of greater than 65%)	–	–
CC(=N)N[C@H](C)C[C@@H]1CCC[C@@H](c2ccc(-n3cc4cc(-c5cc(CCC[C@H](C)N)cc(Cl)c5F)[nH]c4nc3=O)cc2)N1 [Compound 254]	≤ 16	≤ 16	+ (a “+” in “BW result” indicates that the rat exhibited a weight gain of 20% or more)	+ (a “+” in “Hematology result” indicates indicates that the rat exhibited a reticulocyte count change of 65% or less)	–	–
colistin [reference compound]	–	–	–	–	0.25	4
CC(=N)NCC[C@@H]1CCC[C@@H](c2ccc(-n3cc4cc(-c5cc(CCC[C@H](C)N)c(C(F)(F)F)cc5F)[nH]c4nc3=O)cc2)N1 [Compound 317]	≤ 16	≤ 16	− (a “−” indicates that the rat exhibited a weight gain of less than 20%)	− (a “−” indicates indicates that the rat exhibited a reticulocyte count change of greater than 65%)	–	–
CCCN1[C@H](CCNC(C)=N)CCC[C@H]1c1ccc(-n2cc3cc(-c4cc(CCC[C@H](C)N)cc(Cl)c4F)[nH]c3nc2=O)cc1 [Compound 360]	≤ 16	≤ 16	+ (a “+” in “BW result” indicates that the rat exhibited a weight gain of 20% or more)	+ (a “+” in “Hematology result” indicates indicates that the rat exhibited a reticulocyte count change of 65% or less)	–	–
COC[C@H](N)CCCc1cc(OC(F)(F)F)c(F)c(-c2cc3cn(-c4ccc([C@@H]5CCC[C@@H](CCNC(C)=N)N5)c(F)c4)c(=O)nc3[nH]2)c1 [Compound 196]	≤ 16	≤ 16	+ (a “+” in “BW result” indicates that the rat exhibited a weight gain of 20% or more)	+ (a “+” in “Hematology result” indicates indicates that the rat exhibited a reticulocyte count change of 65% or less)	–	–
CSc1cc(-n2cc3cc(-c4cc(CCC[C@@H](N)C5CC5)cc(Cl)c4F)[nH]c3nc2=O)ccc1[C@@H]1CCC[C@@H](CCNC(C)=N)N1 [Compound 120]	≤ 16	≤ 16	+ (a “+” in “BW result” indicates that the rat exhibited a weight gain of 20% or more)	+ (a “+” in “Hematology result” indicates indicates that the rat exhibited a reticulocyte count change of 65% or less)	–	–
CC(=N)NCC[C@@H]1CCC[C@@H](c2ccc(-n3cc4cc(-c5cc(CCC[C@@H](N)C6CC6)cc(C(F)(F)F)c5F)[nH]c4nc3=O)cn2)N1 [Compound 249]	≤ 16	≤ 16	+ (a “+” in “BW result” indicates that the rat exhibited a weight gain of 20% or more)	+ (a “+” in “Hematology result” indicates indicates that the rat exhibited a reticulocyte count change of 65% or less)	–	–
CC(=N)NCC[C@@H]1CCC[C@@H](c2ccc(-n3cc4cc(-c5cc(CCC[C@H](C)N)cc(Cl)c5F)[nH]c4nc3=O)cc2S(C)(=O)=O)N1 [Compound 117]	≤ 16	≤ 16	− (a “−” indicates that the rat exhibited a weight gain of less than 20%)	+ (a “+” in “Hematology result” indicates indicates that the rat exhibited a reticulocyte count change of 65% or less)	–	–
C=C[C@@H](CCNC(=N)CF)NCc1ccc(-n2cc3cc(-c4cc(CCC[C@H](C)N)cc(Cl)c4F)[nH]c3nc2=O)cc1 [Compound 23]	≤ 16	≤ 16	+ (a “+” in “BW result” indicates that the rat exhibited a weight gain of 20% or more)	+ (a “+” in “Hematology result” indicates indicates that the rat exhibited a reticulocyte count change of 65% or less)	–	–
C=C[C@@H](N)CCCc1cc(Cl)c(F)c(-c2cc3cn(-c4ccc([C@@H]5CCC[C@@H](CCNC(C)=N)N5)cc4)c(=O)nc3[nH]2)c1 [Compound 36]	≤ 16	≤ 16	–	− (a “−” indicates indicates that the rat exhibited a reticulocyte count change of greater than 65%)	–	–
COC[C@H](N)CCCc1cc(-c2cc3cn(-c4ccc([C@@H]5CCC[C@@H](CCNC(C)=N)N5)c(F)c4)c(=O)nc3[nH]2)c(F)c(C(F)(F)F)c1 [Compound 191]	≤ 16	≤ 16	+ (a “+” in “BW result” indicates that the rat exhibited a weight gain of 20% or more)	+ (a “+” in “Hematology result” indicates indicates that the rat exhibited a reticulocyte count change of 65% or less)	–	–
CC(=N)NCCCN[C@@H](C)c1ccc(-n2cc3cc(-c4cc(CCC[C@H](C)N)cc(Cl)c4F)[nH]c3nc2=O)cc1 [Compound 110]	≤ 16	≤ 16	− (a “−” indicates that the rat exhibited a weight gain of less than 20%)	− (a “−” indicates indicates that the rat exhibited a reticulocyte count change of greater than 65%)	–	–
CC(=N)NCC[C@@H]1CCC[C@@H](c2c(F)cc(-n3cc4cc(-c5cc(CCC[C@H](C)N)cc(Cl)c5F)[nH]c4nc3=O)cc2F)N1 [Compound 127]	≤ 16	≤ 16	+ (a “+” in “BW result” indicates that the rat exhibited a weight gain of 20% or more)	+ (a “+” in “Hematology result” indicates indicates that the rat exhibited a reticulocyte count change of 65% or less)	–	–
